In patent US8846909B2, “Bicyclic heteroaryl kinase inhibitors and methods of use” (University of Rochester, priority 2010, dated 2014):

Target: T1, MLK3 (Homo sapiens, UniProt Q16584)
T1 construct: purchased Dundee DU8313
Test: Radiometric filter plate MLK3 assay; further: 2 µM cold ATP (Km)
Type: biochemical
Settings: read-out: MK3 IC50
Procedure: After a twenty minute incubation, the reactions were washed through filter plates and read on a scintillation counter. Results are shown in Table 10 below, in which +++ indicates ≦0.1 μM, ++ indicates >0.1 μM and ≦1 μM, and + indicates >1 μM.

T1 sequence (Q16584 whole entry): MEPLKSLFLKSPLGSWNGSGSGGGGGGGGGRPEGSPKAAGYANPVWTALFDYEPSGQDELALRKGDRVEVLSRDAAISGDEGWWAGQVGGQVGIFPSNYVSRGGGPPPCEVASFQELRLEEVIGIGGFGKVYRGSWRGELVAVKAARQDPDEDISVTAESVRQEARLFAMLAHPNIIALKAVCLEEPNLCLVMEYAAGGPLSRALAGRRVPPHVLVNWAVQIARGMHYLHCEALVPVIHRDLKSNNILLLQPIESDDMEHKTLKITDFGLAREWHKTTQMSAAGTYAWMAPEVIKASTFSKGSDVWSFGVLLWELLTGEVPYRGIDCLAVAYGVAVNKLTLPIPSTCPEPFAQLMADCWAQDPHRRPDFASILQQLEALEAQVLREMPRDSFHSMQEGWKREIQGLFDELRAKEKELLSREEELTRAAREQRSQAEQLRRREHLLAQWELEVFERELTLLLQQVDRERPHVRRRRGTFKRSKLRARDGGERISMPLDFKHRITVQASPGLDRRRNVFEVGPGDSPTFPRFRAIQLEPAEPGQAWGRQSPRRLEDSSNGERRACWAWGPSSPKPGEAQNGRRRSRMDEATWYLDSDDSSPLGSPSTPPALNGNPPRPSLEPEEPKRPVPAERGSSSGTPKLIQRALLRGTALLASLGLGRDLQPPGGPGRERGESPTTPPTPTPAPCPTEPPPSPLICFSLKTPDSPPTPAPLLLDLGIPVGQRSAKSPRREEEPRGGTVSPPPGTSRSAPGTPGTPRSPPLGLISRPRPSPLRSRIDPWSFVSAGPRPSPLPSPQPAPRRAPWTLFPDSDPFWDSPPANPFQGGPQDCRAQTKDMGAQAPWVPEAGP

| IC50 [nM] | SMILES |
| --- | --- |
| < 100 | CNC(=O)c1ccc(-c2c[nH]c3ncc(-c4ccc(CN5CCN(C)CC5)cc4)cc23)cc1 [Example 165, N-methyl-4-{5-[4-(4-methyl-piperazin-1-ylmethyl)-phenyl]-1H-pyrrolo[2,3-b]pyridin-3-yl}-benzamide] |
| > 1000 | CN1CCN(Cc2ccc(-c3cnc4[nH]cc(-c5ccc(F)cc5)c4c3)cc2)CC1 [Example 170] |
| < 100 | CC(C)CC(=O)N1CCN(Cc2ccc(-c3cnc4[nH]cc(-c5ccc6[nH]ccc6c5)c4c3)cc2)CC1 [Example 194] |
| < 100 | CC(C)C(=O)N1CCN(Cc2ccc(-c3cnc4[nH]cc(-c5ccc6[nH]ccc6c5)c4c3)cc2)CC1 [Example 186] |
| 100 to 1000 | c1ccc(CN2CCN(Cc3ccc(-c4cnc5[nH]cc(-c6ccc7[nH]ccc7c6)c5c4)cc3)CC2)cc1 [Example 178] |
| < 100 | CCS(=O)(=O)N1CCN(Cc2ccc(-c3cnc4[nH]cc(-c5ccc6[nH]ccc6c5)c4c3)cc2)CC1 [Example 189] |
| > 1000 | CN1CCN(Cc2ccc(-c3cnc4[nH]cc(-c5ccc(C(F)(F)F)cc5)c4c3)cc2)CC1 [Example 171] |
| > 1000 | CN1CCN(Cc2ccc(-c3c[nH]c4ncc(-c5ccc6[nH]ccc6c5)cc34)cc2)CC1 [Example 163, 5-(1H-indol-5-yl)-3-[4-(4-methyl-piperazin-1-ylmethyl)-phenyl]-1H-pyrrolo[2,3-b]pyridine] |
| < 100 | CS(=O)(=O)Nc1ccc(-c2cnc3[nH]cc(-c4ccc5[nH]ccc5c4)c3c2)cc1 [Example 11, N-(4-(3-(1H-indol-5-yl)-1H-pyrrolo[2,3-b]pyridin-5-yl)phenyl)methanesulfonamide] |
| < 100 | CN(C)Cc1ccc(-c2cnc3[nH]cc(-c4ccc5[nH]ccc5c4)c3c2)cc1 [Example 33, 1-(4-(3-(1H-indol-5-yl)-1H-pyrrolo[2,3-b]pyridin-5-yl)phenyl)-N,N-dimethylmethanamine] |
| < 100 | c1cn(Cc2ccc(-c3cnc4[nH]cc(-c5ccc6[nH]ccc6c5)c4c3)cc2)cn1 [Example 199, 5-(4-((1H-imidazol-1-yl)methyl)phenyl)-3-(1H-indol-5-yl)-1H-pyrrolo[2,3-b]pyridine] |
| < 100 | [2H]c1cc2cc(-c3c[nH]c4ncc(-c5ccc(CN6CCN(C)CC6)cc5)cc34)ccc2[nH]1 [Example 206] |
| < 100 | CN1CCN(Cc2ccc(-c3cnc4[nH]cc(-c5cnc6[nH]ccc6c5)c4c3)cc2)CC1 [Example 202] |
| < 100 | COc1cc(-c2cnc3[nH]cc(-c4ccc5[nH]ccc5c4)c3c2)ccc1N [Example 5, 4-(3-(1H-indol-5-yl)-1H-pyrrolo[2,3-b]pyridin-5-yl)-2-methoxyaniline] |

The next lines start with the molecule.

| SMILES | IC50 [nM] |
| --- | --- |
| O=c1[nH]c2ncc(-c3ccc(O)cc3)nc2n1CC1CC1 [Example 81, 1-(cyclopropylmethyl)-6-(4-hydroxyphenyl)-1H-imidazo[4,5-b]pyrazin-2(3H)-one] | > 1000 |
| O=c1[nH]c2ncc(-c3ccncc3)nc2n1CC1CC1 [Example 82, 1-(cyclopropylmethyl)-6-(pyridin-4-yl)-1H-imidazo[4,5-b]pyrazin-2(3H)-one] | > 1000 |
| COc1cc(-c2cnc3[nH]c(=S)n(CC4CC4)c3n2)cc(OC)c1OC [Example 127, 1-(cyclopropylmethyl)-6-(3,4,5-trimethoxyphenyl)-1H-imidazo[4,5-b]pyrazine-2(3H)-thione] | > 1000 |
| COc1cc(-c2cnc3[nH]c(=O)n(-c4cnc5[nH]ccc5c4)c3n2)cc(OC)c1OC [Example 112, 1-(1H-pyrrolo[2,3-b]pyridin-5-yl)-6-(3,4,5-trimethoxyphenyl)-1H-imidazo[4,5-b]pyrazin-2(3H)-one] | < 100 |
| Cc1cc(C)cc(-c2cnc3[nH]c(=O)n(-c4ccc5c(ccn5C)c4)c3n2)c1 [Example 43, 6-(3,5-dimethylphenyl)-1-(1-methyl-1H-indol-5-yl)-1H-imidazo[4,5-b]pyrazin-2(3H)-one] | > 1000 |
| Nc1ncc(-c2cnc3[nH]cc(-c4cnc(N)nc4)c3c2)cn1 [Example 20, 5,5′-(1H-pyrrolo[2,3-b]pyridine-3,5-diyl)dipyrimidin-2-amine] | > 1000 |
| Cc1cc(C)cc(-c2cnc3[nH]c(=O)n(-c4ccc5cn[nH]c5c4)c3n2)c1 [Example 95, 6-(3,5-dimethylphenyl)-1-(1H-indazol-6-yl)-1H-imidazo[4,5-b]pyrazin-2(3H)-one] | > 1000 |
| COc1cc(-c2cnc3c(c2)C(Cc2cccnc2)C(=O)N3)cc(OC)c1OC (stereo not shown) [Example 135, 3-pyridin-3-ylmethyl-5-(3,4,5-trimethoxy-phenyl)-1,3-dihydro-pyrrolo[2,3-b]pyridin-2-one] | > 1000 |
| O=c1[nH]c2ncc(-c3ccncc3)nc2n1-c1ccc2[nH]ncc2c1 [Example 88, 1-(1H-indazol-5-yl)-6-(pyridin-4-yl)-1H-imidazo[4,5-b]pyrazin-2(3H)-one] | > 1000 |
| COc1cc(OC)c(-c2cnc3[nH]c(=O)n(C4CCCC4)c3n2)c(OC)c1 [Example 94, 1-cyclopentyl-6-(2,4,6-trimethoxyphenyl)-1H-imidazo[4,5-b]pyrazin-2(3H)-one] | > 1000 |
| COc1cc(-c2cnc3[nH]c(=O)n(-c4ccc5[nH]ccc5c4)c3n2)ccc1N [Example 60, 6-(4-amino-3-methoxyphenyl)-1-(1H-indol-5-yl)-1H-imidazo[4,5-b]pyrazin-2(3H)-one] | < 100 |
| COc1cc(-c2cnc3[nH]cc(-c4ccc5[nH]ccc5c4)c3n2)ccc1OCCN1CCOCC1 [Example 39, 4-(2-(4-(7-(1H-indol-5-yl)-5H-pyrrolo[3,2-b]pyrazin-2-yl)-2-methoxyphenoxy)ethyl)morpholine] | < 100 |
| COc1cc(-c2cnc3[nH]c(=O)n(CC4CC4)c3c2)cc(OC)c1OC [Example 125, 1-(cyclopropylmethyl)-6-(3,4,5-trimethoxyphenyl)-1H-imidazo[4,5-b]pyridin-2(3H)-one] | > 1000 |
| COc1cc(-c2cnc3c(c2)C(CC2CC2)(CC2CC2)C(=O)N3)cc(OC)c1OC [Example 122, 3,3-bis(cyclopropylmethyl)-5-(3,4,5-trimethoxyphenyl)-1H-pyrrolo[2,3-b]pyridin-2(3H)-one] | > 1000 |
| COc1cc(-c2cnc3[nH]c(=O)n(-c4ccc5cc[nH]c5c4)c3n2)cc(OC)c1OC [Example 113, 1-(1H-indol-6-yl)-6-(3,4,5-trimethoxyphenyl)-1H-imidazo[4,5-b]pyrazin-2(3H)-one] | < 100 |
| COc1cc(-c2cnc3[nH]cc(-c4ccc(NC(C)=O)cc4)c3c2)cc(OC)c1OC [Example 16, N-(4-(5-(3,4,5-trimethoxyphenyl)-1H-pyrrolo[2,3-b]pyridin-3-yl)phenyl)acetamide] | < 100 |
| COc1cc(-c2cnc3[nH]c(=O)n(-c4ccc5[nH]ccc5c4)c3n2)cc(OC)c1OC [Example 40, 1-(1H-indol-5-yl)-6-(3,4,5-trimethoxyphenyl)-1H-imidazo[4,5-b]pyrazin-2(3H)-one] | < 100 |
| COc1ccc(-n2c(=O)[nH]c3ncc(-c4ccc(OC)c(OC)c4)nc32)cc1 [Example 69, 6-(3,4-dimethoxyphenyl)-1-(4-methoxyphenyl)-1H-imidazo[4,5-b]pyrazin-2(3H)-one] | > 1000 |
| COc1cc(-c2cnc3c(c2)C(=Cc2cccc(C#N)c2)C(=O)N3)cc(OC)c1OC (mixture of isomers) [Example 134, 3-[2-oxo-5-(3,4,5-trimethoxy-phenyl)-1,2-dihydro-pyrrolo[2,3-b]pyridin-3-ylidenemethyl]-benzonitrile] | > 1000 |
| Cc1cc(C)cc(-c2cnc3[nH]c(=O)n(-c4ccc5[nH]ccc5c4)c3n2)c1 [Example 46, 6-(3,5-dimethylphenyl)-1-(1H-indol-5-yl)-1H-imidazo[4,5-b]pyrazin-2(3H)-one] | > 1000 |
| COc1cc(-c2cnc3[nH]c(=O)n(-c4ccc(N5CCOCC5)nc4)c3n2)cc(OC)c1OC [Example 109, 1-(6-morpholinopyridin-3-yl)-6-(3,4,5-trimethoxyphenyl)-1H-imidazo[4,5-b]pyrazin-2(3H)-one] | > 1000 |
| O=c1[nH]c2ncc(-c3cc(Cl)cc(Cl)c3)nc2n1-c1ccc2[nH]ccc2c1 [Example 48, 6-(3,5-dichlorophenyl)-1-(1H-indol-5-yl)-1H-imidazo[4,5-b]pyrazin-2(3H)-one] | > 1000 |
| COc1cc(-c2cnc3[nH]cc(-c4ccc5c(ccn5C)c4)c3c2)cc(OC)c1OC [Example 24, 3-(1-methyl-1H-indol-5-yl)-5-(3,4,5-trimethoxyphenyl)-1H-pyrrolo[2,3-b]pyridine] | < 100 |
| COc1cc(-c2cnc3c(c2)C(=Cc2cccc(C(N)=O)c2)C(=O)N3)cc(OC)c1OC [Example 132, 3-[2-oxo-5-(3,4,5-trimethoxy-phenyl)-1,2-dihydro-pyrrolo[2,3-b]pyridin-3-ylidenemethyl]-benzamide] | > 1000 |
| COc1ccc(-n2c(=O)[nH]c3ncc(-c4ccncc4)nc32)cc1 [Example 71, 1-(4-methoxyphenyl)-6-(pyridin-4-yl)-1H-imidazo[4,5-b]pyrazin-2(3H)-one] | > 1000 |
| Cc1cc(C)cc(-c2cnc3[nH]c(=O)n(-c4ccc5scnc5c4)c3n2)c1 [Example 99, 1-(benzo[d]thiazol-5-yl)-6-(3,5-dimethylphenyl)-1H-imidazo[4,5-b]pyrazin-2(3H)-one] | > 1000 |
| O=c1[nH]c2ncc(-c3ccncc3)nc2n1-c1ccc2scnc2c1 [Example 98, 1-(benzo[d]thiazol-5-yl)-6-(pyridin-4-yl)-1H-imidazo[4,5-b]pyrazin-2(3H)-one] | > 1000 |
| CN(C)c1ccc(-c2cnc3[nH]cc(-c4ccc(F)c(Cl)c4)c3c2)cn1 [Example 22, 5-(3-(3-chloro-4-fluorophenyl)-1H-pyrrolo[2,3-b]pyridin-5-yl)-N,N-dimethylpyridin-2-amine] | > 1000 |
| COc1cc(-c2cnc3[nH]c(=O)n(-c4ccc5[nH]ccc5c4)c3n2)ccc1O [Example 55, 6-(4-hydroxy-3-methoxyphenyl)-1-(1H-indol-5-yl)-1H-imidazo[4,5-b]pyrazin-2(3H)-one] | < 100 |
